Patent US4727070A, “3-Propenzl cephalosporin isomer separation process and derivative” (Bristol-Myers Company, priority 1985, dated 1988)
One block for each molecule: values may come before it.

Assays:
[1] = Solubility in organic solvents (methanol, acetone, methanol-acetone mixture); format: physicochemical; conditions: for solubility in methanol-acetone mixture: methanol-acetone containing 20% to 50% by volume methanol, room temperature or below
Description: In carrying out the foregoing process, it is preferred to use sodium 2-ethylhexanoate as salt-forming reagent, but other reagents such as sodium acetate or the sodium salt of other carboxylic acids may be employed. A reaction inert organic solvent such as a liquid alkanol or ester, is preferably employed in combination with the ketone used as imidazolidinone-forming reagent as solvent. A minimal quantity of water may also be employed to facilitate dissolution. The preferred solvents are mixtures of methanol and acetone. […] Accordingly mixtures of these two solvents are employed to provide the desired differential solubility. Mixtures of methanol and acetone containing from 20% to 50% by volume of methanol are suitable. The antibiotic sodium salt 2,2-dimethylimidazolidinone derivative is insoluble in the methanol-acetone mixture at room temperature or below while the 2,2-dimethylimidazolidinone derivative sodium salt of the (E)-isomer is soluble. This difference in solubility provides a basis for the separation of these, otherwise very similar materials.

[2] = Aqueous solution stability (250 mg/ml) at room temperature; format: physicochemical; conditions: for pH of the aqueous solution: aqueous solution for parenteral injection
Gram-negative = conditions: cited from earlier work
Water solubility = format: physicochemical
[3] = Solid state stability on storage (purity of sample); format: physicochemical; conditions: for remaining at 672 h: 4 Weeks

solubility in acetone [1]: substantially insoluble
solubility in methanol [1]: very soluble
solubility in methanol-acetone mixture [1]: soluble
Compound: C/C=C/C1=C(C(=O)O)N2C(=O)C(N3C(=O)[C@@H](c4ccc(O)cc4)NC3(C)C)C2SC1 (some centres unmarked) [acetonide of BMY-28167]

Compound: C/C=C\C1=C(C(=O)[O-])N2C(=O)C(NC(=O)[C@H](N)c3ccc(O)cc3)[C@H]2SC1.[Na+] (stereo partly drawn) [sodium salt of the antibiotic, sodium 7-[D-2-amino-2-(4-hydroxyphenyl)acetamido]-3-((Z)-1-propenyl)ceph-3-em-4-carboxylate, reference compound]
pH of the aqueous solution [2]: 8.2
time to 10% potency loss in aqueous solution ([2]; sodium salt of the antibiotic per se, solution pH 8.2): 30 min

Compound: C/C=C\C1=C(C(=O)O)N2C(=O)C(NC(=O)[C@H](N)c3ccc(O)cc3)[C@H]2SC1 (stereo partly drawn) [BMY-28100, 7-[D-2-amino-2-(4-hydroxyphenyl)acetamido]-3-[(Z)-1-propenyl]ceph-3-em-4-carboxylic acid]
Gram-negative antibacterial activity compared to the (E)-isomer (Gram-negative): improved

time to 10% potency loss in aqueous solution ([2]; 250 mg/ml aqueous solution, room temperature, pH 7.2): approximately 2 hours
pH of the aqueous solution [2]: 7.2
water solubility (Water solubility): several hundred
solubility in acetone [1]: substantially insoluble
solubility in methanol [1]: very soluble
solubility in methanol-acetone mixture [1]: insoluble
remaining at 24 h ([3]; 1 Day, 100 deg. C.): 80%
remaining at 168 h ([3]; 1 Week, 70 deg. C.): 94%
remaining at 672 h ([3]; 37 deg. C.): 100%
remaining at 672 h ([3]; 45 deg. C.): 102%
remaining at 672 h ([3]; 56 deg. C.): 98.6%
Compound: C/C=C\C1=C(C(=O)O)N2C(=O)C(N3C(=O)[C@@H](c4ccc(O)cc4)NC3(C)C)[C@H]2SC1 (some centres unmarked) [sodium 7-[2,2-dimethyl-4-(4-hydroxyphenyl)-5-oxo-1-imidazolidinyl]-3-[(Z)-1-propenyl]ceph-3-em-4-carboxylate]
